Converted amounts (≈) assume the structure as drawn.
Test: Solubility of the compound at pH 7.4 by potentiometric titration method
Type: physicochemical
Details: buffer

Row | solubility [µM] | SMILES
1 | 3.7 (≈ 1.89 µg/mL) | COC(=O)c1ccc(-c2ccc(N3CCN(C)CC3)c(NC(=O)c3cc(N)c(F)c(C)c3Cl)c2)cc1
2 | 3.9 (≈ 2.31 µg/mL) | Cc1c(F)c(N)cc(C(=O)Nc2cc(-c3ccc(NC(=O)C4CCN(C)CC4)cc3)ccc2N2CCN(C)CC2)c1Cl
3 | 246 (≈ 151 µg/mL) | Cc1c(F)c(N)cc(C(=O)Nc2cc(-n3cc(C(=O)NCCCN4CCOCC4)nn3)ccc2N2CCN(C)CC2)c1Cl
4 | 41.5 (≈ 20.8 µg/mL) | COC(=O)c1cn(-c2ccc(N3CCN(C)CC3)c(NC(=O)c3cc(N)c(F)c(C)c3Cl)c2)nn1

The next lines start with the compound.

Row | SMILES | solubility [µM]
5 | Cc1c(F)c(N)cc(C(=O)Nc2cc(-c3ccc(NC(=O)CCCN)cc3)ccc2N2CCN(C)CC2)c1Cl | 199 (≈ 110 µg/mL)
6 | Cc1c(F)c(N)cc(C(=O)Nc2cc(-c3ccc(NC(=O)C4CCOCC4)cc3)ccc2N2CCN(C)CC2)c1Cl | 126 (≈ 73.3 µg/mL)
7 | Cc1c(F)c(N)cc(C(=O)Nc2cc(-c3ccc(C(=O)N4CCOCC4)cc3)ccc2N2CCN(C)CC2)c1Cl | 48.2 (≈ 27.3 µg/mL)
8 | Cc1c(F)c(N)cc(C(=O)Nc2cc(-n3cc(C(=O)N4CCOCC4)nn3)ccc2N2CCN(C)CC2)c1Cl | 361 (≈ 201 µg/mL)
9 | Cc1c(F)c(N)cc(C(=O)Nc2cc(-n3cc(C(=O)NC4CCOCC4)nn3)ccc2N2CCN(C)CC2)c1Cl | 95.6 (≈ 54.6 µg/mL)
10 | Cc1c(F)c(N)cc(C(=O)Nc2cc(-n3cc(C(=O)O)nn3)ccc2N2CCN(C)CC2)c1Cl | 349 (≈ 170 µg/mL)
11 | Cc1c(F)c(N)cc(C(=O)Nc2cc(-n3cc(C(=O)NC4CCN(C)CC4)nn3)ccc2N2CCN(C)CC2)c1Cl | 343 (≈ 201 µg/mL)
12 | Cc1c(F)c(N)cc(C(=O)Nc2cc(-c3ccc(C(=O)O)cc3)ccc2N2CCN(C)CC2)c1Cl | 40.5 (≈ 20.1 µg/mL)

Reference: ChEMBL document CHEMBL4831498, “Discovery of a potent MLL1 and WDR5 protein-protein interaction inhibitor with in vivo antitumor activity” (Eur J Med Chem, 2021)
